Data taken from US9624215B2, “Amine derivative or salt thereof” (TOYAMA CHEMICAL CO., LTD., priority 2012, dated 2017).

What was measured:
[1] = tested on: TPA-induced ear edema and acanthosis in Balb/c mice; assay: Mouse TPA-induced ear-swelling model; assay type: in vivo; settings: topical, 240 h, 1% w/v solution, 20 μL applied to ear once a day from day 0 to day 9, female Balb/c mice, read-out: Inhibition rate of change in ear thickness on day 10
Protocol: Seven-week-old female Balb/c mice (Charles River Laboratories Japan) were used. 20 μL of a 20 ng/mL solution of TPA (Wako Pure Chemical Industries, 162-23591) dissolved in 5% DMSO/acetone was applied to the outer side of the mouse ear on day 0, day 2, day 4, day 7 and day 9 to induce ear edema and acanthosis. The test compound was dissolved in a 5% DMSO/acetone solution (concentration: 1% w/v) and 20 μL of the resulting solution was applied to the outer side of the ear once a day from day 0 to day 9. For the control group, a 5% DMSO/acetone solution was similarly applied. The TPA solution and the test compound solution were mixed and applied on the days for TPA application (day 0, day 2, day 4, day 7 and day 9). The ear thickness was chronologically measured on days 0-4 and days 7-10 using a micrometer (Mitutoyo, MDC-25MJT). The change in ear thickness and the inhibition rate were determined by the following formulas. Change in ear thickness=(ear thickness measured on day 10)−(ear thickness measured on day 0 before TPA application) Inhibition rate (%)=100−(change in ear thickness for test compound group/change in ear thickness for control group)×100

[2] = tested on: normal human neonatal foreskin epidermal keratinocytes (NHEK-F); assay: Cell proliferation inhibition test; assay type: cell-based; settings: Keratinocyte, 72 h, NHEK-F cells, three days incubation, ATPlite or CellTiterGlo, read-out: IC50 (concentration of the compound at which the cell count is reduced by 50%)
Summary of the method: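 NHEK-F keratinocytes, 2×10^3 per well in Humedia-EG2, plated overnight, then exposed to compound for three days. Cell count by ATPlite or CellTiterGlo luminescence; inhibition = 100 − (treated/untreated count)×100, IC50 as 50% reduction concentration.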

Row | Structure (SMILES) | inhibition in vivo at 1 % strength [1] [%] | IC50 [2] [nM]
1 | CC(C)Cn1ccc2cc(Nc3ncc(C4CC4)cc3C(=O)O)ccc21 [Example 126, 2-((1-isobutyl-1H-indol-5-yl)amino)-5-cyclopropylnicotinic acid] | ≥ 20 | ≤ 10
2 | Cc1cc(Nc2ncc(C3CC3)cc2C(=O)O)cc2ccn(Cc3cccc(F)c3)c12 [Example 621, 5-cyclopropyl-2-((1-(3-fluorobenzyl)-7-methyl-1H-indol-5-yl)amino)nicotinic acid] | ≥ 20 | ≤ 10
3 | Cn1ccc2cc(Nc3ncc(C4CC4)cc3C(=O)O)cc(-c3ccccc3C#N)c21 [Example 482, 2-((7-(2-cyanophenyl)-1-methyl-1H-indol-5-yl)amino)-5-cyclopropylnicotinic acid] | ≥ 20 | ≤ 10
4 | COc1cccc(Cn2ccc3cc(Nc4ncc(C5CC5)cc4C(=O)O)ccc32)c1 [Example 237, 5-cyclopropyl-2-((1-(3-methoxybenzyl)-1H-indol-5-yl)amino)nicotinic acid] | ≥ 20 | 10 to 100
5 | Cn1ccc2cc(Nc3ncc(C4CC4)cc3C(=O)O)cc(-c3ccc(C#N)cc3)c21 [Example 484, 2-((7-(4-cyanophenyl)-1-methyl-1H-indol-5-yl)amino)-5-cyclopropylnicotinic acid] | ≥ 20 | ≤ 10
6 | Cn1cc(-c2ccccc2)c2cc(Nc3ncc(C4CC4)cc3C(=O)O)ccc21 [Example 153] | ≥ 20 | 10 to 100
7 | CCn1ccc2cc(Nc3ncc(C4CC4)cc3C(=O)O)cc(CCCOC)c21 [Example 598, 5-cyclopropyl-2-((1-ethyl-7-(3-methoxypropyl)-1H-indol-5-yl)amino)nicotinic acid] | ≥ 20 | 10 to 100
8 | COc1ccccc1-c1cc(Nc2ncc(C3CC3)cc2C(=O)O)cc2ccn(C)c12 [Example 485, 5-cyclopropyl-2-((7-(2-methoxyphenyl)-1-methyl-1H-indol-5-yl)amino)nicotinic acid] | ≥ 20 | ≤ 10
9 | CC(C)CCn1ccc2cc(Nc3ncc(C4CC4)cc3C(=O)O)ccc21 [Example 448, 5-cyclopropyl-2-(1-isopentyl-1H-indol-5-ylamino)nicotinic acid] | ≥ 20 | ≤ 10
10 | Cn1ccc2cc(Nc3ncc(C4CC4)cc3C(=O)O)cc(-c3ccc(F)cc3F)c21 [Example 588, 5-cyclopropyl-2-((7-(2,4-difluorophenyl)-1-methyl-1H-indol-5-yl)amino)nicotinic acid] | ≥ 20 | ≤ 10
11 | O=C(O)c1cc(C2CC2)cnc1Nc1ccc2c(ccn2CC2CCCC2)c1 [Example 138, 2-((1-(cyclopentylmethyl)-1H-indol-5-yl)amino)-5-cyclopropylnicotinic acid] | ≥ 20 | ≤ 10
12 | O=C(O)c1cc(C2CC2)cnc1Nc1ccc2c(ccn2Cc2ccc(F)cc2F)c1 [Example 633, 5-cyclopropyl-2-((1-(2,4-difluorobenzyl)-1H-indol-5-yl)amino)nicotinic acid] | ≥ 20 | ≤ 10
13 | CS(=O)(=O)NC(=O)c1cc(C2CC2)cnc1Nc1ccc2c(ccn2Cc2ccccc2)c1 [Example 149, 2-((1-benzyl-1H-indol-5-yl)amino)-5-cyclopropyl-N-(methylsulfonyl)nicotinamide] | ≥ 20 | 10 to 100
14 | O=C(O)c1cc(C2CC2)cnc1Nc1ccc2c(ccn2Cc2cccc(C(F)(F)F)c2)c1 [Example 450, 5-cyclopropyl-2-((1-(3-(trifluoromethyl)benzyl)-1H-indol-5-yl)amino)nicotinic acid] | ≥ 20 | ≤ 10
15 | Cn1ccc2cc(Nc3ncc(C4CC4)cc3C(=O)O)cc(-c3ccc(F)cc3)c21 [Example 466, 5-cyclopropyl-2-((7-(4-fluorophenyl)-1-methyl-1H-indol-5-yl)amino)nicotinic acid] | ≥ 20 | ≤ 10
16 | O=C(O)c1cc(C2CC2)cnc1Nc1ccc2ccn(CC3CCCCC3)c2c1 [Example 523, 2-((1-(cyclohexylmethyl)-1H-indol-6-yl)amino)-5-cyclopropylnicotinic acid] | ≥ 20 | ≤ 10
17 | Cn1nccc1-c1cc(Nc2ncc(C3CC3)cc2C(=O)O)cc2ccn(C)c12 [Example 596, 5-cyclopropyl-2-((1-methyl-7-(1-methyl-1H-pyrazol-5-yl)-1H-indol-5-yl)amino)nicotinic acid] | ≥ 20 | ≤ 10

Row | Structure (SMILES) | inhibition in vivo at 1 % strength [1] [%] | IC50 [2] [nM]
18 | Cn1ccc2cc(Nc3ncc(C4CC4)cc3C(=O)O)cc(CCC3CC3)c21 [Example 470, 5-cyclopropyl-2-((7-(2-cyclopropylethyl)-1-methyl-1H-indol-5-yl)amino)nicotinic acid] | ≥ 20 | ≤ 10
19 | CCn1ccc2cc(Nc3ncc(C4CC4)cc3C(=O)O)cc(-c3ccccc3)c21 [Example 597, 5-cyclopropyl-2-((1-ethyl-7-phenyl-1H-indol-5-yl)amino)nicotinic acid] | ≥ 20 | ≤ 10
20 | O=C(O)c1cc(C2CC2)cnc1Nc1ccc2c(ccn2Cc2cccc(F)c2)c1 [Example 239, 5-cyclopropyl-2-((1-(3-fluorobenzyl)-1H-indol-5-yl)amino)nicotinic acid] | ≥ 20 | ≤ 10
21 | O=C(O)c1cc(C2CC2)cnc1Nc1ccc2c(ccn2Cc2cc(F)cc(F)c2)c1 [Example 497, 5-cyclopropyl-2-((1-(3,5-difluorobenzyl)-1H-indol-5-yl)amino)nicotinic acid] | ≥ 20 | ≤ 10
22 | Cc1ccccc1Cn1ccc2cc(Nc3ncc(C4CC4)cc3C(=O)O)ccc21 [Example 455, 5-cyclopropyl-2-((1-(2-methylbenzyl)-1H-indol-5-yl)amino)nicotinic acid] | ≥ 20 | ≤ 10
23 | COCCCc1cc(Nc2ncc(C3CC3)cc2C(=O)O)cc2ccn(C)c12 [Example 468, 5-cyclopropyl-2-((7-(3-methoxypropyl)-1-methyl-1H-indol-5-yl)amino)nicotinic acid] | ≥ 20 | 10 to 100
24 | O=C(O)c1cc(C2CC2)cnc1Nc1ccc2c(ccn2Cc2cccc(Cl)c2)c1 [Example 460, 2-((1-(3-chlorobenzyl)-1H-indol-5-yl)amino)-5-cyclopropylnicotinic acid] | ≥ 20 | ≤ 10
25 | Cc1cc2c(ccn2Cc2ccccc2)cc1Nc1ncc(C2CC2)cc1C(=O)O [Example 585, 2-((1-benzyl-6-methyl-1H-indol-5-yl)amino)-5-cyclopropylnicotinic acid] | ≥ 20 | ≤ 10
26 | CCn1c(-c2ccccc2)cc2cc(Nc3ncc(C4CC4)cc3C(=O)O)ccc21 [Example 142, 5-cyclopropyl-2-((1-ethyl-2-phenyl-1H-indol-5-yl)amino)nicotinic acid] | ≥ 20 | 10 to 100
27 | N#Cc1cccc(Cn2ccc3cc(Nc4ncc(C5CC5)cc4C(=O)O)ccc32)c1 [Example 453, 2-((1-(3-cyanobenzyl)-1H-indol-5-yl)amino)-5-cyclopropylnicotinic acid] | ≥ 20 | 10 to 100
28 | Cn1ccc2cc(Nc3ncc(C4CC4)cc3C(=O)O)cc(-c3ccccc3F)c21 [Example 464, 5-cyclopropyl-2-((7-(2-fluorophenyl)-1-methyl-1H-indol-5-yl)amino)nicotinic acid] | ≥ 20 | ≤ 10
29 | Cn1ccc2cc(Nc3ncc(C4CC4)cc3C(=O)O)cc(-c3cccc(-c4ccccc4)c3)c21 [Example 189, 2-((7-([1,1′-biphenyl]-3-yl)-1-methyl-1H-indol-5-yl)amino)-5-cyclopropylnicotinic acid] | ≥ 20 | ≤ 10
30 | Cc1cccc(Cn2ccc3cc(Nc4ncc(C5CC5)cc4C(=O)O)ccc32)c1 [Example 456, 5-cyclopropyl-2-((1-(3-methylbenzyl)-1H-indol-5-yl)amino)nicotinic acid] | ≥ 20 | ≤ 10
31 | CCCCCn1ccc2cc(Nc3ncc(C4CC4)cc3C(=O)O)ccc21 [Example 638, 5-cyclopropyl-2-((1-pentyl-1H-indol-5-yl)amino)nicotinic acid] | ≥ 20 | 10 to 100
32 | O=C(O)c1cc(C2CC2)cnc1Nc1ccc2c(c1)sc(=O)n2CC1CCCCC1 [Example 565, 2-((3-(cyclohexylmethyl)-2-oxo-2,3-dihydro-1,3-benzothiazol-6-yl)amino)-5-cyclopropylnicotinic acid] | ≥ 20 | ≤ 10
33 | O=C(O)c1cc(C2CC2)cnc1Nc1ccc2c(ccn2CC2CCCCC2)c1 [Example 130, 2-((1-(cyclohexylmethyl)-1H-indol-5-yl)amino)-5-cyclopropylnicotinic acid] | ≥ 20 | ≤ 10
